US8426447B2, “Spiro-tricyclic ring compounds as beta-secretase modulators and methods of use” (Amgen Inc., priority 2008, dated 2013)

How the values were obtained:
BACE1 [1] = biological target: T1, BACE1 (Homo sapiens, UniProt P56817); test: In Vitro BACE Cell-based Assay (HEK cell assay): Aβ40 in conditioned medium of cells stably expressing Amyloid Precursor Protein, sandwich ELISA; conditions: read-out: HEK cell assay
How it was run: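 Read-out is time-resolved fluorescence of Aβ40 in supernatant, captured by pAb40 and detected with biotinylated 6E10 plus Streptavidin-Europium. Cells stably expressing APP received compounds for 24 h over 10 concentrations starting at 100 μM or 10 μM, final DMSO 0.1%.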

BACE1 [2] = biological target: T1, BACE1; test: In Vitro Enzymatic BACE FRET (Fluorescence Resonance Energy Transfer) Assay; type: biochemical; conditions: read-out: BACE1 FRET assay
How it was run: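 One-hour incubation initiated by 50 nM quenched FRET peptide spanning the BACE cleavage site, in 0.05 M acetate (pH 4.2), 100 uM genapol, 10% DMSO final. Tris addition neutralizes pH to end the reaction before fluorescence measurement.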

[3] = HEK cell-based assay, Aβ40 in conditioned medium, IC50 class symbols
[4] = in vitro BACE FRET enzyme assay, IC50 class symbols

T1 sequence (P56817 46-501, species assumed): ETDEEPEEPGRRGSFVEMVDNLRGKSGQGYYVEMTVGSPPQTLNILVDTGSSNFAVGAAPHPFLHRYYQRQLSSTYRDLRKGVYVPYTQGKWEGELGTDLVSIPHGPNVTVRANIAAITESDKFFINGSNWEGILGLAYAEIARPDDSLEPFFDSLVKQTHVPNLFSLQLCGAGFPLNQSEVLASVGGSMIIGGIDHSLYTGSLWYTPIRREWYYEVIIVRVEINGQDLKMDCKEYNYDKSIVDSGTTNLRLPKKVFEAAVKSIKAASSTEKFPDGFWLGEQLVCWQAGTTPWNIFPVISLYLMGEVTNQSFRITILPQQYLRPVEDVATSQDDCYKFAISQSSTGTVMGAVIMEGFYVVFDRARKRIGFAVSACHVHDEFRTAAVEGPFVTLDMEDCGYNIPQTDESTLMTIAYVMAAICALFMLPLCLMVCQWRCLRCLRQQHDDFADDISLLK

CC1(COc2cc3c(cc2F)Oc2ccc(-c4cncnc4)cc2[C@]32COC(N)=N2)COC1 [compound 713]
IC50 (BACE1 [1]): 0.1 to 1 µM | IC50 (BACE1 [2]): 0.1 to 1 µM

CCCOc1cc2c(cc1F)Oc1ccc(-c3ccc(F)nc3)cc1[C@@]21COC(N)=N1 [compound 920]
IC50 (BACE1 [1]; Table IV, class symbols): 0.1 to 1 µM | IC50 (BACE1 [2]; Table IV, class symbols): < 0.1 µM

Cn1cc(-c2ccc3c(c2)[C@]2(COC(N)=N2)c2cc(-c4cccnc4F)ccc2O3)cn1 [compound 642]
IC50 (BACE1 [1]; Table IV, class symbols): < 0.1 µM | IC50 (BACE1 [2]; Table IV, class symbols): < 0.1 µM

COC1CN(c2ccc3c(c2)[C@]2(COC(N)=N2)c2cc(-c4cccnc4)ccc2O3)C1 [compound 604]
IC50 (BACE1 [1]; Table IV, class symbols): < 0.1 µM | IC50 (BACE1 [2]; Table IV, class symbols): < 0.1 µM

COc1ccc2c(c1)[C@@]1(COC(N)=N1)c1cc(C(=O)N3CCCC3)ccc1O2 [Example 127, (R)-(2-amino-2′-methoxy-5H-spiro[oxazole-4,9′-xanthene]-7′-yl)(pyrrolidin-1-yl)methanone]
IC50 (BACE1 [1]; Table III, IC50's in uM ranges): 1 to 5 µM | IC50 (BACE1 [2]; Table III, IC50's in uM ranges): > 5 µM

Cc1ccc(-c2ccc3c(c2)[C@]2(COC(N)=N2)c2cc(-c4cncnc4)ccc2O3)cc1 [compound 226]
IC50 (BACE1 [1]; Table III, IC50's in uM ranges): < 0.1 µM | IC50 (BACE1 [2]; Table III, IC50's in uM ranges): < 0.1 µM

NC1=N[C@@]2(CO1)c1cc(-c3cncnc3)ccc1Oc1ncc(C3=CCOCC3)cc12 [compound 805]
IC50 (BACE1 [1]; Table IV, class symbols): < 0.1 µM | IC50 (BACE1 [2]; Table IV, class symbols): < 0.1 µM

NC1=N[C@@]2(CO1)c1cc(-c3cncnc3)ccc1Oc1ccc(-c3cccc(O)c3)cc12 [compound 891]
IC50 (BACE1 [1]; Table IV, class symbols): 0.1 to 1 µM | IC50 (BACE1 [2]; Table IV, class symbols): < 0.1 µM

CC(C)(F)COc1cc(F)c2c(c1)[C@]1(COC(N)=N1)c1cc(-c3cccnc3)ccc1O2 [compound 381]
IC50 (BACE1 [1]; [3]): < 0.1 µM | IC50 (BACE1 [2]; [4]): < 0.1 µM

NC1=N[C@@]2(CO1)c1cc(-c3cncnc3)ccc1Oc1cnc(-c3ccccc3)cc12 [compound 546]
IC50 (BACE1 [1]; Table IV, class symbols): < 0.1 µM | IC50 (BACE1 [2]; Table IV, class symbols): < 0.1 µM

CC(C)(C)COc1cnc2c(c1)[C@]1(COC(N)=N1)c1cc(-c3cccc(C#N)c3)ccc1O2 [compound 358]
IC50 (BACE1 [1]; [3]): < 0.1 µM | IC50 (BACE1 [2]; [4]): < 0.1 µM

CC(C)(C)CC(O)c1ccc2c(c1)[C@]1(COC(N)=N1)c1cc(-c3ccc(F)nc3)ccc1O2 (stereo partly drawn) [162a]
IC50 (BACE1 [1]; Table III, IC50's in uM ranges): 0.1 to 1 µM | IC50 (BACE1 [2]; Table III, IC50's in uM ranges): 0.1 to 1 µM

CC(C)(C)CC(=O)c1ccc2c(c1)[C@@]1(COC(N)=N1)c1cc(-c3ccc(F)nc3)ccc1O2 [150b]
IC50 (BACE1 [1]; Table III, IC50's in uM ranges): 0.1 to 1 µM | IC50 (BACE1 [2]; Table III, IC50's in uM ranges): < 0.1 µM

Cn1cc(-c2ccc3c(c2)[C@@]2(COC(N)=N2)c2cc(OCC(C)(C)C)ccc2O3)cn1 [Example 82, (4S)-2′-(2,2-dimethylpropoxy)-7′-(1-methyl-1H-pyrazol-4-yl)spiro[1,3-oxazole-4,9′-xanthen]-2-amine]
IC50 (BACE1 [1]; Table II, Aβ40, 24 h incubation): 1 to 5 µM | IC50 (BACE1 [2]; Table II): 0.1 to 1 µM

CC(C)(C)COc1ccc2c(c1)[C@]1(COC(N)=N1)c1cc(C3CCOCC3)ccc1O2 [compound 747]
IC50 (BACE1 [1]): 1 to 5 µM | IC50 (BACE1 [2]): 0.1 to 1 µM

COc1ccc(-c2ccc3c(c2)[C@]2(COC(N)=N2)c2cc(-c4cncnc4)ccc2O3)cn1 [compound 829]
IC50 (BACE1 [1]; Table IV, class symbols): < 0.1 µM | IC50 (BACE1 [2]; Table IV, class symbols): < 0.1 µM

CC1(COc2ccc3c(c2)[C@@]2(COC(N)=N2)c2cc(-c4ccc(F)cc4)cnc2O3)COC1 [compound 775]
IC50 (BACE1 [1]): < 0.1 µM | IC50 (BACE1 [2]): < 0.1 µM

COc1ccc2c(c1)C1(COC(N)=N1)c1cc(-c3cc(Cl)c(C)cc3F)ccc1O2 (stereo not drawn) [Example 23, 2′-(5-chloro-2-fluoro-4-methylphenyl)-7′-methoxyspiro[1,3-oxazole-4,9′-xanthen]-2-amine]
IC50 (BACE1 [1]; Table 1, Aβ40, 24 h incubation): > 5 µM | IC50 (BACE1 [2]; Table 1): 1 to 5 µM

CC(C)(C)CNc1cc2c(cn1)Oc1ccc(-c3cccnc3)cc1[C@@]21COC(N)=N1 [compound 440]
IC50 (BACE1 [1]; HEK cells): < 0.1 µM | IC50 (BACE1 [2]): < 0.1 µM

CC(C)(C)COc1ccc2c(c1)[C@]1(COC(N)=N1)c1cc(C3CCCCC3)ccc1O2 [compound 802]
IC50 (BACE1 [1]; Table IV, class symbols): 0.1 to 1 µM | IC50 (BACE1 [2]; Table IV, class symbols): < 0.1 µM

NC1=N[C@@]2(CO1)c1cc(-c3cccnc3)ccc1Oc1ccc(-c3cccnc3)nc12 [compound 989]
IC50 (BACE1 [1]): 0.1 to 1 µM | IC50 (BACE1 [2]): 0.1 to 1 µM
